Measurements reported in patent US7138246B2, “Methods for identifying or screening for agents that modulate 17β-HSD3” (Bristol-Myers Squibb Company, priority 2004, dated 2006).

Assays:
[1] = molecular target: T1, AR (Homo sapiens, UniProt P10275, Q868H); assay: testosterone-stimulated parental MDA-MB453 (direct effects on AR); type: cell-based
T1 construct: endogenous in cells; host or cells: parental MDA-MB453
T1 sequence (P10275 1-920 Q868H): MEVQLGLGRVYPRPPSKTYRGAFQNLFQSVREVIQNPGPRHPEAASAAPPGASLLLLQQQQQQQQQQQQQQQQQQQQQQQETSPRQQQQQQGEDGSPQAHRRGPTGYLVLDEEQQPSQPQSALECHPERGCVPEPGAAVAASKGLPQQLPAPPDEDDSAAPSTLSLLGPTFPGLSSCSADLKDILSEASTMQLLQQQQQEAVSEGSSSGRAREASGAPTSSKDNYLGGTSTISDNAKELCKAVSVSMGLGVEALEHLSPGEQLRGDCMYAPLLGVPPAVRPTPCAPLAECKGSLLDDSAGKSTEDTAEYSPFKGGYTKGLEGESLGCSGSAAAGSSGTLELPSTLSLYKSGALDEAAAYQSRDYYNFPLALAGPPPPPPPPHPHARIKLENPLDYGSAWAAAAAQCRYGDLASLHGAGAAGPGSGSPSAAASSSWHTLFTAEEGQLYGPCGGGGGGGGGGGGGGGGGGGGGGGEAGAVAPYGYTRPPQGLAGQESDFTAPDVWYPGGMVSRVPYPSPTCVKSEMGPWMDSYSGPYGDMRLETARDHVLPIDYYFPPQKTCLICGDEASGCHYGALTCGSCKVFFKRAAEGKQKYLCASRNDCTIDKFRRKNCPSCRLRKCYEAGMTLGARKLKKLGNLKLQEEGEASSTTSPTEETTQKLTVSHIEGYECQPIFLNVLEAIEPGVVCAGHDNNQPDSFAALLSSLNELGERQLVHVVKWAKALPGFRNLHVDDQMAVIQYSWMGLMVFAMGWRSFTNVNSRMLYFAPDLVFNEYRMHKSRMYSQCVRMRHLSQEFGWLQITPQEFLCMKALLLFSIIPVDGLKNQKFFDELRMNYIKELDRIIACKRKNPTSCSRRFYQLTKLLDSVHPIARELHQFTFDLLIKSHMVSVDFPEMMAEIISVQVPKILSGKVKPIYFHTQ

[2] = test system: testosterone biosynthesis; assay: testosterone levels in intact rats; type: in vivo; conditions: p.o., over 14 days, FIG. 6
Experimental: Intact rats were administered p.o. the indicated doses of 18β-glycyrrhetinic acid over 14 days and testosterone levels were determined.

[3] = molecular target: T2, 17β-HSD3 (Homo sapiens, UniProt P37058); assay: TLC assay of androstenedione to testosterone conversion in Shinogi-17β-HSD3 cells; type: cell-based; conditions: Shinogi-17β-HSD3 cells incubated with {3H}-androstenedione; read-out: IC50 estimated by TLC assay
T2 sequence (P37058 1-310): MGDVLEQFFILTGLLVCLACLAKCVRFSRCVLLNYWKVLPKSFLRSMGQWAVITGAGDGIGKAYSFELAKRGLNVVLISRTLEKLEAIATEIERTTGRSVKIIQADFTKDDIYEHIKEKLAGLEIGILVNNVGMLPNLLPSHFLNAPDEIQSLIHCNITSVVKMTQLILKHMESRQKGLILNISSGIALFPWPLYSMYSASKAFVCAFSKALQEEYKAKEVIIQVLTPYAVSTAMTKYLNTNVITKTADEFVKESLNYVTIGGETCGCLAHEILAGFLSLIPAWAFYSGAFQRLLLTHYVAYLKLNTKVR
Experimental: Cells were plated in 24-well tissue culture plates at 5×10^4 cells per well in their appropriate media. After allowing the cells to adhere for 24 hours, the media was changed to contain 10% cFBS (charcoal treated FBS) (300 μL) per well and 0.5μ Ci of the radiolabeled hormones were added to each well. After 3 hours, the supernatant was removed and 500 μL of extraction buffer (3 parts Ethyl Acetate: 1 part Acetone) was added to each sample and vortexed extensively. The organic layer was carefully removed and dried down in siliconized 1.5 mL microfuge tubes (National Scientific Supply Co.). […] The BAS screens were then read using a Fujifilm PhosphoImager FLA-2000 and spots were quantitated using the Fujifilm MacBas imaging/densitometry program.
The characterization of breast and prostate tumor cell lines for the 17β-HSD activities enabled the identification of cells which could be engineered for preferred 17β-HSD3 activity to monitor the cellular effects of inhibitors. […] In addition, 17β-HSD mRNA was not detected at appreciable levels in these cells by RT-PCR (data not shown). […]
To confirm that this class of compounds was inhibiting 17β-HSD3, Shinogi-17β-HSD3 cells incubated with {3H}-androstenedione were analyzed by TLC assay following 2-[(3-chloro-4-hydroxybenzoyl)amino]-N-[2-(2-methoxyphenyl)ethyl]-5-phenoxybenzamide treatment.

| SMILES | effects on testosterone-stimulated parental MDA-MB453 [1] | testosterone biosynthesis (testosterone levels) [2] | IC50 [3] [nM] |
| --- | --- | --- | --- |
| CC1(C)[C@@H](O)CC[C@]2(C)[C@H]3C(=O)C=C4[C@@H]5C[C@@](C)(C(=O)O)CC[C@]5(C)CC[C@@]4(C)[C@]3(C)CC[C@@H]12 [18β-glycyrrhetinic acid] | No effects were observed | inhibition of testosterone biosynthesis |  |
| COc1ccccc1CCNC(=O)c1cc(Oc2ccccc2)ccc1NC(=O)c1ccc(O)c(Cl)c1 [2-[(3-chloro-4-hydroxybenzoyl)amino]-N-[2-(2-methoxyphenyl)ethyl]-5-phenoxybenzamide] |  |  | ~300 |
| C[C@]12C=CC(=O)C=C1C(=O)C[C@@H]1[C@@H]2CC[C@]2(C)C(=O)CC[C@@H]12 [1,4-androstadiene-1,6,17-trione] | No effects were observed |  |  |
